Laboratory results taken from patent US10723716B2, “Alpha-helix mimetics as modulators of Abeta self-assembly” (New York University, priority 2016, dated 2020).
Entries after “also recorded” stand apart in the source; their conditions may differ.

Key:
IAPP = molecular target: T1, IAPP (Homo sapiens, UniProt P10997); experiment: ThT-based kinetic assay of IAPP aggregation; assay type: biochemical; settings: for effect on IAPP fibrillation / amyloid formation (ThT): equimolar ratio (IAPP 10 μM, FIG. 25c, 26c, 27m)
T1 construct: purchased Anaspec (Fremont, Calif., USA)
T1 sequence (P10997 34-70 limits assumed): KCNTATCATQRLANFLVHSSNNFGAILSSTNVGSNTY
Protocol: (§1) Kinetic assays were conducted on a FlexStation 3 Multi-Mode Microplate reader from Molecular Devices (Sunnyvale, Calif., USA). Experiments were conducted in triplicate in a 96-well plate with a final volume of 200 μL per well. Every measurement was an average of 50 readings. The aggregation of an amyloidogenic peptide (Aβ40, Aβ42, or IAPP) was initiated by the addition of the peptide from a stock solution (in DMSO, 0.5-1 mM) to phosphate buffer. The final concentration of each peptide was different based on their aggregation. The stoichiometry of ThT dye for each peptide was 0.5:1 (ThT:peptide). Peptide aggregation was monitored by ThT fluorescence (λex=445 nm and λem=485 nm). The blank sample contained all the components of the peptide samples except the peptide. The sample data were processed by subtracting the fluorescence of the blank sample. The fluorescence intensity data was then normalized by setting the maximum value to 1.
(§2) Kinetic assays in the presence of the compounds of the invention were conducted under the same conditions. The small molecules were added from a stock solution (1 mM or 10 mM in DMSO) to keep the final concentration of DMSO less than 1.0% (v/v). Small molecules were added to the wells with ThT and buffer and mixed gently with a pipette before adding the peptide. To keep the conditions identical, an equal amount of DMSO was added to the wells with the peptide-only control reactions.
(§3) Kinetic profiles were processed using Origin (version 9.1). Kinetic curves were fit using the built-in sigmoidal fit. Each run was fit independently to extract the t50 (time required to reach 50% of the maximum fluorescence intensity). Error bars represent standard deviations from the mean of at least three independent experiments.

Aβ42 [1] = molecular target: T2, Aβ42 (Homo sapiens, UniProt P05067); experiment: ThT-based kinetic assay of Aβ42 aggregation; assay type: biochemical; settings: 5 μM Aβ42, equimolar, compound added at 2 h
T2 construct: Cleavage of APP results in several Aβ isoforms; The predominant species are Aβ42 and Aβ40; purchased Anaspec (Fremont, Calif., USA)
T2 sequence (P05067 672-713 limits assumed): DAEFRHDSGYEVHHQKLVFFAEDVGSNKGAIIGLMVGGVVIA

Neuro-2a cells = experiment: Effect of compound alone on Neuro-2a cell viability; assay type: cell-based, mouse; settings: for toxicity of compound alone to Neuro-2a cells: matched cytotoxic experimental conditions, no Aβ42
Protocol: To investigate the toxic effect of the peptide alone on cell viability, solution (B) without the oligopyridylamide compound was mixed with solution (A), while the effect of the oligopyridylamide compound alone was determined by adding solution (A) without peptide to solution (B). The effect of oligopyridylamides on seed-catalyzed Aβ42 aggregation was probed by preparing an additional solution (C) containing 0.5 μM seeds. The volume contributed by solution (C) was taken into account in preparing solution (B). Solution (C) was mixed with solution (B), and the resulting mixture was then added to solution (A) shortly before addition to the wells. To study the effect of oligopyridylamides on the oligomeric states of Aβ42, solution (A) was mixed with solution (B) without inhibitor and incubated at room temperature for 1, 2 or 3 h. Subsequently, 50 μM oligopyridylamides was added to the mixture, which was then immediately added to the cells. […] The MTS reagent was incubated for 2.5 h at 37° C., and absorbance of the soluble formazan product (λ=490 nm) of MTS reduction was measured on a Synergy H1MF Multi-Mode microplate-reader (BioTek, Winooski, Vt., USA), with a reference wavelength of 650 nm to subtract the background. Wells treated with a solution containing serum-free DMEM, 200 μM NaOH, 0.1×PBS and 0.5% (v/v) DMSO served as control. MTS reduction was determined from the ratio of the absorbance of the treated wells to the control wells. Each data point represents an average of four independent quadruplet-well trials.

Aβ42 [2] = molecular target: T2, Aβ42; experiment: ThT-based kinetic assay of Aβ42 aggregation; assay type: biochemical; settings: for effect on Aβ42 oligomerization/fibrillation (ThT): equimolar ratio
Description: The aggregation of Aβ42 was monitored using an established exogenous dye, Thioflavin T (ThT) that intercalates between the amyloid fibers along the perpendicular axis without affecting the kinetics of amyloid formation. (see Wolfe, L. S.; Calabrese, M. F.; Nath, A.; Blaho, D. V.; Miranker, A. D.; Xiong, Y. Proc. Natl. Acad. Sci. U.S.A. 2010, 107, 16863-16868; Levine, H. Protein Sci. 1993, 2, 404-410). A representative ThT-based kinetic assay results are depicted in FIG. 2. The oligomerization reaction of Aβ42 was initiated by diluting a 1 mM stock solution of Aβ42 (in DMSO) to a concentration of 20 μM in phosphate buffer (150 mM KCl, 50 mM NaPi, pH 7.4). Aβ42 fibrillation is a nucleation-dependent polymerization process and is characterized by a sigmoidal curve consisting of a lag phase, an elongation phase, and a plateau phase (FIG. 2a). The kinetic reaction was quantified by extracting t50, which is the time required to reach 50% of the maximum fluorescence that results from fibrillation. Under standard conditions the tso for Aβ42 fibrillation was 2.1±0.2 h (FIG. 2a and FIG. 8).
as §1, §2, §3
In the delayed addition experiments, where the oligopyridylamides were added at various time points during Aβ amyloid reaction, the conditions were same (as used for the assays where Aβ was preincubated with the oligopyridylamides). The Aβ oligomerization process was initiated by dissolving Aβ into buffer solution and then oligopyridylamides were added to this solution at indicated time points (depend on the assay) at an equimolar ratio.

[3] = system: IAPP mediated toxicity in rat INS-1 cells; experiment: IAPP mediated toxicity in INS-1 cells; assay type: cell-based; settings: equimolar ratio
Aβ42 [4] = molecular target: T2, Aβ42; experiment: Transmission electron microscopy (TEM) of Aβ42; assay type: biochemical; settings: for Aβ42 oligomers seen by TEM after addition to preformed oligomers: 5 μM Aβ42, compound added to preformed oligomers (2 h), equimolar
Protocol: Aβ42 (5 μM) was incubated in phosphate buffer in the absence and presence of the compounds of the invention at various time intervals and stoichiometric ratios. Aliquots of these samples were then applied to glow-discharged carbon-coated 300-mesh copper grids for 2 min and dried. Grids were negatively stained with uranyl acetate (2%, w/v) and dried. Micrographs of grids were examined on a Phillips CM12 Cryoelectron Microscope equipped with Gatan 4k×2.7k CCD camera at 120-kV accelerating voltage.

effect on aggregation of IAPP (ThT) (IAPP; 20 μM IAPP, equimolar ratio (FIG. 3b, 3c, 13))	effect on Aβ42 amyloid reaction on delayed addition (Aβ42 [1])	change in ThT fluorescence intensity in control reaction (Aβ42 [2]; control reaction without Aβ42, matched conditions)	ThT fluorescence intensity characteristic of Aβ42 oligomers (Aβ42 [2]; sub-stoichiometric ratios of 1:0.5 and 1:0.1 (Aβ42:ADH-41))	fibers of Aβ42 seen by TEM (Aβ42 [4]; 5 μM Aβ42, 1:0.1 (Aβ42:ADH-41), 24 h)	oligomers/fibers of Aβ42 seen by TEM (Aβ42 [4]; 5 μM Aβ42, 1:1 or 1:0.5 (Aβ42:ADH-41), even after 2 days)	Aβ42 oligomers seen by TEM after addition to preformed oligomers (Aβ42 [4])	elongated fibers seen by TEM in seed-catalyzed Aβ42 aggregation (Aβ42 [4]; 20 μM Aβ42 + seeds, equimolar ratio, 24 h)	fibers of Aβ42 seen by TEM (Aβ42 [4]; 5 μM Aβ42, equimolar ratio, after 12 h)	Structure (SMILES)	effect on IAPP fibrillation / amyloid formation (ThT) (IAPP)	cell viability, compound alone (Neuro-2a cells; 4 μM ADH-41 + 1 μM ADH-41F, N2a cells, 24 h)	toxicity of compound alone to Neuro-2a cells (Neuro-2a cells)	effect on Aβ42 oligomerization/fibrillation (ThT) (Aβ42 [2])	effect on IAPP mediated toxicity ([3]; rat INS-1 cells)	cell viability ([3]; IAPP, INS-1 cells, IAPP alone 65±6%)
agonist	effective in inhibiting	no change	< 10%	sparse population of fibers	no formation of oligomers/fibers	No formation of Aβ42 oligomers	no elongated fibers were observed	–	COC(=O)c1ccc(NC(=O)c2ccc(NC(=O)c3ccc([N+](=O)[O-])c(OCc4ccccc4)n3)c(OCCCN)n2)c(OCCCN)n1 [ADH-41]	did not have any effect; also recorded: no effect	98%	not toxic	completely inhibited; also recorded: effectively blocks; also recorded: decreased significantly	did not have any effect; also recorded: no effect	–
–	effective in inhibiting	–	–	–	–	No formation of Aβ42 oligomers	–	no fibers were recorded	COC(=O)c1ccc(NC(=O)c2ccc(NC(=O)c3ccc(NC(=O)c4ccc([N+](=O)[O-])c(OCC(C)C)n4)c(OCc4ccccc4)n3)c(OCC(=O)O)n2)c(OCC(=O)O)n1 [ADH-31]	completely suppressed	–	not toxic	wholly suppressed	–	98±4%
